Legend:
Assay type in all cases: in vivo, C57BL/6 mice
[1] = system: bleomycin-induced pulmonary fibrosis model; assay: Early pulmonary fibrosis: bleomycin-induced model, dosing from one week after modelling; settings: for Leucocyte / Lymphocyte / Neutrophil / Ashcroft scores: early pulmonary fibrosis, 120 mg/kg/d intragastric, 14 days, from one week after model; for Leucocyte / Lymphocyte / Neutrophil: blood, Day 15, twice every day; for Ashcroft scores: lung tissue HE staining; for inhibition (anti-inflammatory) effect on leucocytes, neutrophils and lymphocytes in blood: mice with early pulmonary fibrosis, result in words
[2] = system: coronavirus-induced pulmonary fibrosis model (HcoV-OC43); assay: Coronavirus-induced pulmonary fibrosis model; settings: 120 mg/kg/d intragastric, 14 days; for Ashcroft scores: coronavirus HcoV-OC43 + bleomycin, lung tissue HE; for IL-1β / IL-6 / NF-κB / TNF-α: serum, HcoV-OC43 + bleomycin, from two weeks after model
Text: (§1) Experimental method: an in-vivo coronavirus-induced pulmonary fibrosis model mice was established: C57BL/6 mice (with weights being 22-25 g) were randomly and evenly divided into a plurality of groups, including blank control group, model group, Nintedanib positive control group, hypoxanthine analogue A group, hypoxanthine analogue B group, hypoxanthine analogue C group, compound 1 group, compound 2 group . . . compound 12 group, with 9 mice in each group. On Day 1, the mice in the blank control group were instilled with normal saline nasally, and the mice in other groups were all infected with HcoV-OC43 coronavirus strains (30 μL) through nasal instillation. On Day 2, the mice received 5 mg/kg bleomycin through tracheas to induce their pulmonary fibrosis. After the model was established for two weeks, the mice in each group were intragastrically administrated for intervention for consecutive 14 days; the mice in blank control group and model group intragastrically received the same dosage of the normal saline as those in drug groups; the mice in Nintedanib positive control group received Nintedanib (120 mg/kg); the mice in hypoxanthine analogue A group, hypoxanthine analogue B group and hypoxanthine analogue C group respectively received hypoxanthine analogue A (120 mg/kg/d), hypoxanthine analogue B (120 mg/kg/d) and hypoxanthine analogue C (120 mg/kg/d); and the mice in compound 1 group, compound 2 group . . . compound 12 group respectively received compound 1 (120 mg/kg/d), compound 2 (120 mg/kg/d) . . . compound 12 (120 mg/kg/d) prepared in example 1. After administration for consecutive 14 days, the mice were observed every day, and their weights and death conditions were recorded. After administration, blood was taken from eyeballs for immediately detecting the expression levels of NF-κB, TNF-α, IL-1 and IL-6 in serum, and lung tissues were taken for HE detection and Ashcroft scoring.

[3] = system: influenza B virus-induced pulmonary fibrosis model (influenza B (H7N9) virus); settings: 120 mg/kg/d intragastric, 14 days; for Ashcroft scores: influenza B virus + bleomycin, lung tissue HE; for IL-1β / NF-κB / TNF-α / IL-6: serum, from two weeks after model; for IL-1β / NF-κB / TNF-α: influenza B (H7N9) + bleomycin; for IL-6: influenza B + bleomycin
[4] = system: influenza A virus-induced pulmonary fibrosis model (FM1 strain of influenza A (H1N1) virus); assay: Influenza A virus-induced pulmonary fibrosis model; settings: 120 mg/kg/d intragastric, 14 days; for Ashcroft scores: influenza A virus + bleomycin, lung tissue HE; for IL-1β / IL-6 / NF-κB / TNF-α: serum, influenza A (H1N1) FM1 + bleomycin, from two weeks after model
Text: as §1, with “influenza A virus-induced” for “coronavirus-induced”, “model” for “model mice”, “in” for “in the”, “a FM1 strain of an influenza A (H1N1) virus 30 (μL)” for “HcoV-OC43 coronavirus strains (30 μL)”

[5] = system: bleomycin-induced pulmonary fibrosis model; assay: Comparison with comparative drugs: bleomycin-induced model, hydroxyproline and TGF-β; settings: 120 mg/kg/d intragastric, twice every day, 14 days, from two weeks after model; Day 15

Row | Structure (SMILES) | Leucocyte [1] | Neutrophil [1] | Ashcroft scores [1] | Ashcroft scores [2] | IL-1β [2] [pg/mL] | IL-6 [2] [pg/mL] | NF-κB [2] [pg/mL] | TNF-α [2] [pg/mL] | Ashcroft scores [3] | IL-1β [3] [pg/mL] | NF-κB [3] [pg/mL] | TNF-α [3] [pg/mL] | IL-6 [3] [pg/mL] | Ashcroft scores [4] | IL-1β [4] [pg/mL] | IL-6 [4] [pg/mL] | NF-κB [4] [pg/mL] | TNF-α [4] [pg/mL] | Hydroxyproline in bronchoalveolar lavage fluids [5] [µg/mg] | Hydroxyproline in lung tissues [5] [µg/mg] | further results
1 | CCOc1ncnc2c1ncn2C(C)C [Compound 8] | 4.27 10^9/L | 1.26 10^9/L | 1.09 | 1.29 | 36.6 | 66.7 | 28.3 | 56.1 | 1.16 | 27.1 | 31.9 | 73.5 | 66.5 | 1.28 | 28.6 | 66.0 | 26.8 | 89.9 | 0.72 ± 0.06 | 1.47 ± 0.10 | Lymphocyte [1]: 5.31 10^9/L; TGF-β in bronchoalveolar lavage fluids [5]: 4.06 ± 0.18 µg/L; TGF-β in lung tissues [5]: 25.17 ± 2.35 µg/L
2 | CCCOc1ncnc2c1ncn2C(C)C [Compound 9] | 4.14 10^9/L | 1.33 10^9/L | 1.12 | 1.31 | 35.9 | 64.3 | 24.4 | 55.1 | 1.23 | 26.9 | 30.8 | 73.8 | 66.1 | 1.33 | 28.4 | 65.8 | 27.1 | 91.1 | 0.73 ± 0.09 | 1.41 ± 0.09 | Lymphocyte [1]: 5.23 10^9/L; TGF-β in bronchoalveolar lavage fluids [5]: 4.05 ± 0.14 µg/L; TGF-β in lung tissues [5]: 25.65 ± 2.16 µg/L
3 | CC(C)Oc1ncnc2c1N(C(C)C)CN2C(C)C [Compound 10] | 4.17 10^9/L | 1.21 10^9/L | 1.17 | 1.41 | 37.7 | 68.2 | 25.3 | 56.2 | 1.25 | 27.8 | 31.2 | 74.7 | 65.5 | 1.30 | 29.3 | 64.9 | 27.7 | 89.6 | 0.74 ± 0.06 | 1.37 ± 0.08 | Lymphocyte [1]: 5.27 10^9/L; TGF-β in bronchoalveolar lavage fluids [5]: 4.21 ± 0.18 µg/L; TGF-β in lung tissues [5]: 24.12 ± 2.25 µg/L
4 | CC(=O)Oc1ncnc2c1ncn2C(C)C [Compound 11] | 4.09 10^9/L | 1.10 10^9/L | 1.08 | 1.29 | 35.4 | 63.3 | 25.1 | 52.1 | 1.15 | 26.8 | 31.6 | 73.5 | 65.3 | 1.26 | 27.9 | 64.6 | 26.6 | 88.7 | 0.75 ± 0.05 | 1.43 ± 0.11 | Lymphocyte [1]: 5.20 10^9/L; TGF-β in bronchoalveolar lavage fluids [5]: 4.02 ± 0.15 µg/L; TGF-β in lung tissues [5]: 23.98 ± 2.19 µg/L
5 | CCC(=O)Oc1ncnc2c1ncn2C(C)C [Compound 12] | 4.21 10^9/L | 1.18 10^9/L | 1.14 | 1.37 | 35.8 | 66.5 | 27.7 | 54.4 | 1.26 | 27.8 | 32.9 | 75.4 | 69.7 | 1.31 | 29.9 | 64.7 | 28.1 | 90.8 | 0.76 ± 0.08 | 1.41 ± 0.12 | Lymphocyte [1]: 5.24 10^9/L; TGF-β in bronchoalveolar lavage fluids [5]: 4.06 ± 0.15 µg/L; TGF-β in lung tissues [5]: 23.91 ± 2.38 µg/L
6 | O=c1[nH]cnc2[nH]cnc12 [Hypoxanthine analogue A, reference compound] | 52.12 10^9/L | 41.21 10^9/L | 5.00 | 6.23 | 688.8 | 519.4 | 719.1 | 450.7 | 6.26 | 239.9 | 630.5 | 191.3 | 194.8 | 6.11 | 323.1 | 450.9 | 780.3 | 339.4 | 1.46 ± 0.13 | 2.69 ± 0.12 | Lymphocyte [1]: 49.53 10^9/L; inhibition (anti-inflammatory) effect on leucocytes, neutrophils and lymphocytes in blood [1]: obviously inferior; TGF-β in bronchoalveolar lavage fluids [5]: 9.23 ± 0.26 µg/L; TGF-β in lung tissues [5]: 96.47 ± 8.25 µg/L
7 | CC(C)Oc1ncnc2c1ncn2C [Hypoxanthine analogue B, reference compound] | 49.97 10^9/L | 36.88 10^9/L | 5.39 | 6.12 | 560.6 | 522.2 | 730.1 | 454.4 | 6.21 | 240.6 | 627.1 | 190.2 | 193.1 | 6.07 | 329.7 | 422.7 | 771.9 | 341.6 | 1.81 ± 0.14 | 2.97 ± 0.19 | inhibition (anti-inflammatory) effect on leucocytes, neutrophils and lymphocytes in blood [1]: obviously inferior; TGF-β in bronchoalveolar lavage fluids [5]: 8.95 ± 0.68 µg/L; TGF-β in lung tissues [5]: 91.53 ± 9.56 µg/L
